“Also recorded” adds a separate entry of the source. Like-named read-outs stand apart in the source and are kept apart here.
Legend:
HBV mutant rtM204V = assay: intracellular HBV DNA replication assay, rtM204V; type: cell-based; details: Hepatitis B virus
Description: (§1) In view of the significance of lamivudine- and adefovir-resistant mutations in the clinical application of anti-HBV treatment, the synthesized nucleoside 15/18 was tested against HBV WT as well as lamivudine- and adefovir-resistant mutants.

[1] = tested on: lamivudine-resistant mutants including rtM204V/I±rtL180M; assay: activity against lamivudine-resistant mutants relative to wild type; type: cell-based, Hepatitis B virus
Description: as §1

[2] = tested on: HBV adefovir mutant rtN236T; assay: intracellular HBV DNA replication assay, adefovir mutant; type: cell-based, Hepatitis B virus
Description: as §1

wild-type HBV [3] = assay: intracellular HBV DNA replication assay, wild type; type: cell-based, Hepatitis B virus
Description: as §1

[4] = tested on: HBV genotype C entecavir resistant clone (L180M+M204V+S202G); assay: anti-HBV activity against entecavir resistant clone in Huh7 cells; type: cell-based, Hepatitis B virus; details: for EC50: Hepatitis B virus, Huh-7; for antiviral potency against the entecavir mutant / IC50: Huh7 cells; for IC50: HBV genotype C entecavir resistant clone
Description: (§2) A mono-phosphate prodrug can be useful not only to bypass the rate limiting initial phosphorylation step by the nucleoside kinase, thereby to increase the antiviral potency, but also it may potentially target the liver. Therefore, a phosphoramidite, compound 15P/18P was also synthesized.

[5] = tested on: HBV double mutant rtL180M/rtM204V; assay: intracellular HBV DNA replication assay, double mutant; type: cell-based, Hepatitis B virus
Description: as §1

[6] = biological target: T1, adenosine deaminase from calf thymus (Bos taurus, UniProt P56658); assay: deamination study with adenosine deaminase; type: in vitro ADME
T1 construct: adenosine deaminase from calf thymus; from tissue; host or cells: calf thymus
T1 sequence (P56658 1-363): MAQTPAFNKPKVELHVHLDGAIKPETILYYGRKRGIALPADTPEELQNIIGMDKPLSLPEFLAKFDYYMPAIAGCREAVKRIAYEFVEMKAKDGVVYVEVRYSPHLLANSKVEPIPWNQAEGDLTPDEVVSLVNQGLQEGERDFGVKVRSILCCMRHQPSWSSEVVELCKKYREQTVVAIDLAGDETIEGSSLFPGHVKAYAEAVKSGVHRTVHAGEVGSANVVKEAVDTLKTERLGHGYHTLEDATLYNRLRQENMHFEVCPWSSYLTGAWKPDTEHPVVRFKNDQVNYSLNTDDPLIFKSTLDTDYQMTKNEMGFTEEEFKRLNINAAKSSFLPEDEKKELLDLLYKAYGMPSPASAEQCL

HBV mutant rtM204I = assay: intracellular HBV DNA replication assay, rtM204I; type: cell-based; details: Hepatitis B virus
Description: as §1

HepG2 cells = assay: mitochondrial toxicity by lactic dehydrogenase release; type: cell-based; details: human
HBV mutant rtL180M = assay: intracellular HBV DNA replication assay, rtL180M; type: cell-based, Hepatitis B virus; details: for EC50 / EC90: Hepatitis B virus
Description: as §1

[7] = cytotoxicity / cellular toxicity (CC50); details: Table 2
Description: Drug susceptibility assays were performed as previously described. Cytotoxicity assays in PBM, CEM and Vero cells were conducted as previously described. […] These compounds were tested in a standard HBV assay in the laboratory of Dr. Brent Korba.

[8] = tested on: entecavir resistant HBV mutant (L180M+M204V+S202G); assay: in vivo study in chimeric mice, entecavir resistant HBV mutant; details: for viral load down / activity: mice, entecavir resistant HBV mutant (L180M+M204V+S202G); for antiviral activity: preliminary, chimeric mice infected with lamivudine-adeforvir-entecavir triple mutant
Description: (§3) The FMCA monophosphate prodrug compound (15P/18P) was also tested in chimeric mice for activity.

wild-type HBV [9] = assay: in vivo study in chimeric mice, wild-type HBV
Description: as §3

HBV = assay: standard HBV assay (HBV Assay Results table); type: cell-based, Hepatitis B virus
Description: Drug susceptibility assays were performed as previously described. […]

WT HBV = assay: anti-HBV activity against wild type in Huh7 cells (Table 2); type: cell-based, Hepatitis B virus
Description: as §2

[10] = tested on: HBV rtA181T and rtN236T mutations; details: cited from earlier work
[11] = tested on: lamivudine-resistant mutants including rtM204V/I±rtL180M; details: literature reference 50; cited from earlier work
[12] = rtN236T, compared with adefovir

## C=C1[C@@H](n2cnc3c(N)ncnc32)[C@@H](F)[C@H](O)[C@H]1CO [Compound 15/18, (+)-(1R,2R,3R,5R)-3-(6-amino-9H-9-purinyl)-2-fluoro-5-(hydroxymethyl)-4-methylenecyclopentan-1-ol]
HBV mutant rtM204V
  EC50: 1.8 µM
[1]
  cross-resistance to tested lamivudine-resistant mutants: not cross-resistant
[1]; rtM204V/I±rtL180M versus wild type
  fold increase against lamivudine-resistant mutants: 1.0-1.2 fold
[2]; Hepatitis B virus
  EC50: 1.7 µM
  EC90: 4.6 µM
[2]; [12]
  fold enhanced EC50 value: 4.5 fold
  fold more favorable EC90 value: 7.8 fold
wild-type HBV [3]; Hepatitis B virus
  EC90: 4.5 µM
wild-type HBV [3]; Hepatitis B virus, HBV-WT, inhibition of 50% of HBV DNA
  EC50: 1.5 µM
wild-type HBV [3]; wild-type HBV
  fold more potent than adefovir in EC90: 1.5 fold
wild-type HBV [3]; wild-type HBV, EC50
  fold less potent than lamivudine: 7 fold
[4]
  EC50: 0.67 µM
  antiviral potency against the entecavir mutant: still maintain the antiviral potency
[5]; Hepatitis B virus
  EC50: 2.2 µM
  EC90: 5.5 µM
[6]
  stability against adenosine deaminase: completely stable
HBV mutant rtM204I
  EC50: 1 µM
HepG2 cells
  mitochondrial toxicity (lactic dehydrogenase release): did not exhibit any significant toxicity up to 100 μM
HBV mutant rtL180M
  EC50: 2.1 µM
  EC90: 5.1 µM
HBV mutant rtL180M; rtL180M
  fold increased antiviral activity in EC90 versus lamivudine: 4.3 fold

## C=C1C(COP(=O)(N[C@@H](C)C(=O)OC)Oc2ccccc2)C(O)C(F)C1n1cnc2c(N)ncnc21 (stereo partly shown) [Compound 15P/18P]
[7]
  cellular toxicity in comparison to parent 15/18: without significant increase of cellular toxicity
[8]
  viral load down / activity: 1 log
  antiviral activity: exhibited antiviral activity
[4]
  IC50: 0.05 µM
  antiviral potency against the entecavir mutant: still maintain the antiviral potency
wild-type HBV [9]
  viral load down: 2 log
HBV; prodrug versus parent 15/18
  times more active than the compound where R1 and R1a are H: more than 10 times
WT HBV
  fold enhancement of anti-HBV potency in EC50 versus parent 15/18: 7 fold
  fold enhancement of anti-HBV potency in EC90 versus parent 15/18: 13 fold

## Nc1ncnc2c1ncn2CCOCP(=O)(O)O [adefovir, reference compound]
[10]
  increase in median effective concentration: two-fold to nine-fold
wild-type HBV [3]; HBV-WT, inhibition of 90% of HBV DNA, read-out: EC90
  EC90: 7.1 µM
[5]; double mutant rtL180M/rtM204V, read-out: EC50
  EC50: 2.2 µM
[5]; double mutant rtL180M/rtM204V, read-out: EC90
  EC90: 8.5 µM

## C=C1[C@H](CO)[C@@H](O)C[C@@H]1n1cnc2c(=O)[nH]c(N)nc21 [entecavir]
[11]
  fold loss of activity against lamivudine-resistant mutants: 8 fold
[8]; listed as ETV
  viral load down / activity: inactive; also recorded: not active
[8]
  antiviral activity: did not
[4]
  EC50: 1.2 µM

## Nc1ccn([C@@H]2CS[C@H](CO)O2)c(=O)n1 [lamivudine, reference compound]
HepG2 cells
  mitochondrial toxicity (lactic dehydrogenase release): did not exhibit any significant toxicity up to 100 μM
HBV; Hepatitis B virus, read-out: Control: 3TC EC50
  EC50: 2420 µM
HBV mutant rtL180M
  EC50: 1.5 µM
  EC90: 22 µM

## (+)-(1R,2R,3R,5R)-3-(6-amino-9H-9-purinyl)-2-fluoro-5-(hydroxymethyl)-4-methylenecyclopentan-1-ol [Compound 15/18]
[4]
  IC50: 0.054 µM

Source: patent US11082386B2, “2′-fluoro-6′-methylene carbocyclic nucleosides and methods of treating viral infections” (UNIVERSITY OF GEORGIA RESEARCH FOUNDATION, INC., priority 2009, dated 2021)
